According to PubChem BioAssay (NCI):
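Compound exposure: 48 hours, 5 concentrations, 96-well plates. TGI denotes the concentration required for complete inhibition of growth.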

What was measured:
Test in all cases: DTP human tumour cell line panel, 48 h
[1] = tested on: TK-10 renal
[2] = tested on: K-562 leukemia
[3] = tested on: OVCAR-3 ovarian
[4] = tested on: HOP-62 NSCLC
[5] = tested on: SK-OV-3 ovarian
[6] = tested on: SK-MEL-2 melanoma
[7] = tested on: A498 renal
[8] = tested on: DMS 273 small cell lung
[9] = tested on: HL-60(TB) leukemia
[10] = tested on: DMS 114 small cell lung
[11] = tested on: SNB-75 CNS
[12] = tested on: 786-0 renal
[13] = tested on: RPMI-8226 leukemia
[14] = tested on: COLO 205 colon
[15] = tested on: SF-539 CNS
[16] = tested on: MOLT-4 leukemia
[17] = tested on: SN12C renal
[18] = tested on: SW-620 colon
[19] = tested on: KM12 colon
[20] = tested on: ACHN renal
[21] = tested on: KM20L2 colon
[22] = tested on: M19-MEL melanoma
[23] = tested on: A549 NSCLC
[24] = tested on: NCI-H522 lung
[25] = tested on: RXF 393 renal
[26] = tested on: HCT-15 colon
[27] = tested on: SNB-19 CNS
[28] = tested on: SF-268 CNS
[29] = tested on: NCI-H460 lung
[30] = tested on: EKVX NSCLC
[31] = tested on: OVCAR-4 ovarian
[32] = tested on: LOX IMVI melanoma
[33] = tested on: NCI-H226 lung
[34] = tested on: SK-MEL-5 melanoma
[35] = tested on: HCT-116 colon
[36] = tested on: MALME-3M melanoma
[37] = tested on: UACC-62 melanoma
[38] = tested on: HCC-2998 colon
[39] = tested on: OVCAR-5 ovarian
[40] = tested on: NCI-H23 lung
[41] = tested on: IGROV1 ovarian
[42] = tested on: LXFL 529 NSCLC
[43] = tested on: CCRF-CEM leukemia
[44] = tested on: U251 CNS
[45] = tested on: XF 498 CNS
[46] = tested on: SK-MEL-28 melanoma
[47] = tested on: OVCAR-8 ovarian
[48] = tested on: SF-295 CNS
[49] = tested on: M14 melanoma
[50] = tested on: HOP-18 NSCLC
[51] = tested on: HT29 colon
[52] = tested on: CAKI-1 renal
[53] = tested on: HOP-92 NSCLC
[54] = tested on: SNB-78 CNS
[55] = tested on: SR leukemia
[56] = tested on: DLD-1 colon
[57] = tested on: UACC-257 melanoma
[58] = tested on: UO-31 renal
[59] = tested on: RXF-631 renal

O=C(Cc1nc2sc3c(c2c(=O)[nH]1)CCCC3)Nc1ccccc1
TGI [1]: > 100 µM | TGI [2]: > 100 µM | TGI [3]: > 100 µM | TGI [4]: > 100 µM | TGI [5]: > 100 µM | TGI [6]: > 100 µM | TGI [7]: > 100 µM | TGI [8]: > 100 µM | TGI [9]: > 100 µM | TGI [10]: > 100 µM | TGI [11]: 53.6 µM | TGI [12]: > 100 µM | TGI [13]: > 100 µM | TGI [14]: > 100 µM | TGI [15]: > 100 µM | TGI [16]: > 100 µM | TGI [17]: > 100 µM | TGI [18]: > 100 µM | TGI [19]: > 100 µM | TGI [20]: > 100 µM | TGI [21]: > 100 µM | TGI [22]: > 100 µM | TGI [23]: > 100 µM | TGI [24]: > 100 µM | TGI [25]: 69.9 µM | TGI [26]: > 100 µM | TGI [27]: > 100 µM | TGI [28]: > 100 µM | TGI [29]: > 100 µM | TGI [30]: > 100 µM | TGI [31]: > 100 µM | TGI [32]: > 100 µM | TGI [33]: > 100 µM | TGI [34]: > 100 µM | TGI [35]: > 100 µM | TGI [36]: > 100 µM | TGI [37]: > 100 µM | TGI [38]: > 100 µM | TGI [39]: > 100 µM | TGI [40]: > 100 µM | TGI [41]: > 100 µM | TGI [42]: > 100 µM | TGI [43]: > 100 µM | TGI [44]: > 100 µM | TGI [45]: > 100 µM | TGI [46]: > 100 µM | TGI [47]: > 100 µM | TGI [48]: > 100 µM | TGI [49]: > 100 µM | TGI [50]: > 100 µM | TGI [51]: > 100 µM | TGI [52]: > 100 µM | TGI [53]: > 100 µM

Cc1cccc(C)c1NC(=O)CCc1nnc2s/c(=C\c3ccc(N(C)C)cc3)c(=O)n12
TGI [54]: > 100 µM | TGI [1]: > 100 µM | TGI [2]: > 100 µM | TGI [3]: > 100 µM | TGI [4]: > 100 µM | TGI [5]: > 100 µM | TGI [6]: > 100 µM | TGI [7]: > 100 µM | TGI [8]: > 100 µM | TGI [9]: > 100 µM | TGI [10]: > 100 µM | TGI [11]: > 100 µM | TGI [12]: > 100 µM | TGI [13]: > 100 µM | TGI [14]: > 100 µM | TGI [55]: > 100 µM | TGI [15]: > 100 µM | TGI [16]: > 100 µM | TGI [17]: > 100 µM | TGI [18]: > 100 µM | TGI [19]: > 100 µM | TGI [20]: > 100 µM | TGI [21]: > 100 µM | TGI [23]: > 100 µM | TGI [24]: > 100 µM | TGI [25]: > 100 µM | TGI [26]: > 100 µM | TGI [27]: > 100 µM | TGI [28]: > 100 µM | TGI [29]: > 100 µM | TGI [31]: > 100 µM | TGI [32]: > 100 µM | TGI [33]: > 100 µM | TGI [34]: > 100 µM | TGI [35]: > 100 µM | TGI [36]: > 100 µM | TGI [37]: > 100 µM | TGI [38]: > 100 µM | TGI [39]: > 100 µM | TGI [40]: > 100 µM | TGI [41]: > 100 µM | TGI [42]: > 100 µM | TGI [43]: > 100 µM | TGI [44]: > 100 µM | TGI [45]: > 100 µM | TGI [46]: > 100 µM | TGI [47]: > 100 µM | TGI [48]: > 100 µM | TGI [49]: > 100 µM | TGI [56]: > 100 µM | TGI [51]: > 100 µM | TGI [57]: > 100 µM | TGI [58]: > 100 µM | TGI [52]: > 100 µM | TGI [59]: > 100 µM | TGI [53]: > 100 µM
